# System: subcutaneous HT1080 (FAP−) and HT1080-hFAP (FAP+) tumors
# Assay: Gamma counting biodistribution in tumor-bearing mice
# Format: in vivo, mouse
# Description: For tumor-xenograft models, female NMRI nu/nu mice (Janvier, France), 8–9 weeks old, were housed at a constant temperature (22 °C) and relative humidity (40–55%) under a regular light/dark schedule. Food and water were available ad libitum.
# Tumor cells (10^6 cells in 50 μL saline) were implanted subcutaneously in the shoulders of NMRI mice with HT1080 wildtype (FAP^−) in one shoulder and with stably transfected human FAP-expressing HT1080 cells (FAP^+) in the contralateral shoulder. Cells were kindly provided by U. Haberkorn, University of Heidelberg. At day 11 after implantation, mice received whole-body PET/MRI (1 T Mediso nanoScan) imaging with list mode PET for 60 min and additional non-contrast-enhanced anatomic, coronal T1-weighted MRI, followed by late static PET/MRI imaging 180 min p.i. Either ^68Ga-OncoFAP or ^68Ga-FAPI-46 (n = 6 each) was injected into the tail vein with a syringe pump at 1000 μL/min in a volume of 100 μL 30 s after the start of PET. At the next day (day 12 after implantation), the same mice were injected with the respective other FAP-tracer and received identical dynamic PET/MRI for 60 min. […] All involved measuring hardware (dose calibrator ISOMED 2010, automatic γ-counter PERKIN ELMER WALAC 2480, Twilite coincidence detector Swisstrace, PET/MRI) were cross-calibrated for ^68Ga. Overall, 3 scans were rejected, because of extravasation (day 11 OncoFAP), inability of i.v. access (day 12 FAPI-46), and insufficient radioactivity (day 12 FAPI-46), respectively. The resulting injected amounts of radioactivity for the remaining 11 ^68Ga-OncoFAP scans and 10 ^68Ga-FAPI-46 scans were 19.2 ± 4.4 MBq and 18.2 ± 4.8 MBq, respectively.
smiles,measurement,setting,value
"CN(CCCN1CCN(C(=O)CN2CCN(CC(=O)[O-])CCN(CC(=O)[O-])CCN(CC(=O)[O-])CC2)CC1)c1ccc2nccc(C(=O)NCC(=O)N3CC(F)(F)C[C@H]3C#N)c2c1.[68Ga+3] [^68Ga-FAPI-46, [^68Ga]Ga-FAPI-46]",organ-to-blood ratio brain,gamma counting 1 h p.i.,0.06 ± 0.01
same,organ-to-blood ratio heart,gamma counting 1 h p.i.,0.36 ± 0.04
same,organ-to-blood ratio kidney,gamma counting 1 h p.i.,11.58 ± 8.84
same,organ-to-blood ratio liver,gamma counting 1 h p.i.,0.70 ± 0.23
same,organ-to-blood ratio lung,gamma counting 1 h p.i.,1.84 ± 1.04
same,organ-to-blood ratio muscle,gamma counting 1 h p.i.,0.31 ± 0.11
same,organ-to-blood ratio spleen,gamma counting 1 h p.i.,0.43 ± 0.06
same,organ-to-blood ratio tumor FAP+ (tumor-to-blood ratio),gamma counting 1 h p.i.,1.98 ± 0.92
same,organ-to-blood ratio tumor FAP-,gamma counting 1 h p.i.,0.55 ± 0.08
same,uptake blood,gamma counting 1 h p.i.,0.69 ± 0.15 % ID/g
same,uptake heart,gamma counting 1 h p.i.,0.25 ± 0.07 % ID/g
same,uptake kidney,gamma counting 1 h p.i.,8.58 ± 7.52 % ID/g
same,uptake liver,gamma counting 1 h p.i.,0.46 ± 0.06 % ID/g
same,uptake lung,gamma counting 1 h p.i.,1.17 ± 0.43 % ID/g
same,uptake muscle,gamma counting 1 h p.i.,0.21 ± 0.07 % ID/g
same,uptake plasma,gamma counting 1 h p.i.,1.02 ± 0.30 % ID/g
same,uptake spleen,gamma counting 1 h p.i.,0.29 ± 0.05 % ID/g
same,uptake tumor FAP+,gamma counting 1 h p.i.,1.28 ± 0.40 % ID/g
same,uptake tumor FAP-,gamma counting 1 h p.i.,0.38 ± 0.12 % ID/g
same,uptake urine,gamma counting 1 h p.i.,525.55 ± 279.13 % ID/g
same,organ-to-blood ratio brain,gamma counting 3 h p.i.,0.15 ± 0.10
same,organ-to-blood ratio heart,gamma counting 3 h p.i.,0.51 ± 0.23
same,organ-to-blood ratio kidney,gamma counting 3 h p.i.,10.39 ± 5.81
same,organ-to-blood ratio liver,gamma counting 3 h p.i.,1.73 ± 1.28
same,organ-to-blood ratio lung,gamma counting 3 h p.i.,2.27 ± 1.98
same,organ-to-blood ratio muscle,gamma counting 3 h p.i.,0.38 ± 0.26
same,organ-to-blood ratio spleen,gamma counting 3 h p.i.,0.78 ± 0.47
same,organ-to-blood ratio tumor FAP+ (tumor-to-blood ratio),gamma counting 3 h p.i.,28.62 ± 17.69
same,organ-to-blood ratio tumor FAP-,gamma counting 3 h p.i.,1.15 ± 0.67
same,uptake blood,gamma counting 3 h p.i.,0.22 ± 0.31 % ID/g
same,uptake brain,gamma counting 3 h p.i.,0.01 ± 0.00 % ID/g
same,uptake heart,gamma counting 3 h p.i.,0.05 ± 0.02 % ID/g
same,uptake kidney,gamma counting 3 h p.i.,0.98 ± 0.60 % ID/g
same,uptake liver,gamma counting 3 h p.i.,0.14 ± 0.03 % ID/g
same,uptake lung,gamma counting 3 h p.i.,0.17 ± 0.06 % ID/g
same,uptake muscle,gamma counting 3 h p.i.,0.04 ± 0.02 % ID/g
same,uptake plasma,gamma counting 3 h p.i.,0.38 ± 0.53 % ID/g
same,uptake spleen,gamma counting 3 h p.i.,0.07 ± 0.02 % ID/g
same,uptake tumor FAP+,gamma counting 3 h p.i.,2.64 ± 0.60 % ID/g
same,uptake tumor FAP-,gamma counting 3 h p.i.,0.11 ± 0.03 % ID/g

# — PMC9016025, “Translational imaging of the fibroblast activation protein (FAP) using the new ligand [^68Ga]Ga-OncoFAP-DOTAGA” (European Journal of Nuclear Medicine and Molecular Imaging, 2021)
